Numbered stars: 1 amine (or outer) side, 2 acyl side, 3 side chain; on linkers, the order of the positions; unused ones are H or OH. Square brackets hold non-standard residues; d marks the D form. Peptide text beside a SMILES is read from it. * marks the point of attachment. X1 = CCCC[C@@H](C(=O)[*:2])n1cc([C@H](Cc2c[nH]c3ccccc23)N[*:1])nn1; X4 = C[C@H](N[*:1])c1cn([C@@H](Cc2ccc(O)cc2)C(=O)[*:2])nn1; DOTA = O=C(O)CN1CCN(CC(=O)O)CCN(CC(=O)*)CCN(CC(=O)O)CC1; X3 = O=C([C@H](Cc1c[nH]c2ccccc12)n1cc(CN[*:1])nn1)[*:2]; X2 = O=C(Cn1cc([C@H](Cc2ccc(O)cc2)N[*:1])nn1)[*:2]; Nle = CCCC[C@H](N)C(=O)O
Key:
[1] = Blood plasma stability; assay type: in vitro ADME; settings: human blood plasma, 37° C.; for at least more than 2 hours; FIG. 3
Method: The ^177Lu-labelled compounds were diluted with 0.9% NaCl to a concentration of 3.75 μM and incubated (375 pmol, 100 μL, 7.5-12 MBq) in nitrogen-flushed fresh human blood plasma (1.5 mL) at 37° C. At different time points (0.5, 1, 2, 4, 6 and 24 h) aliquots (75 μL) were taken and the proteins were precipitated in CH3CN (100 μL) and centrifuged (2 min, 14680 rpm, rt). The supernatant (75 μL) was diluted with water (75 μL) and analyzed by γ-HPLC.

[2] = target: CCK2R (Homo sapiens, UniProt P32239); assay: IC50 (nM); set-up: Human Medullary Thyroid Cancer cells (MZ-CRCl) expressing the CCK2R; endogenous in cells; host or cells: MZ-CRC1 human medullary thyroid cancer cells
Chain of CCK2R (P32239 whole entry, looked up): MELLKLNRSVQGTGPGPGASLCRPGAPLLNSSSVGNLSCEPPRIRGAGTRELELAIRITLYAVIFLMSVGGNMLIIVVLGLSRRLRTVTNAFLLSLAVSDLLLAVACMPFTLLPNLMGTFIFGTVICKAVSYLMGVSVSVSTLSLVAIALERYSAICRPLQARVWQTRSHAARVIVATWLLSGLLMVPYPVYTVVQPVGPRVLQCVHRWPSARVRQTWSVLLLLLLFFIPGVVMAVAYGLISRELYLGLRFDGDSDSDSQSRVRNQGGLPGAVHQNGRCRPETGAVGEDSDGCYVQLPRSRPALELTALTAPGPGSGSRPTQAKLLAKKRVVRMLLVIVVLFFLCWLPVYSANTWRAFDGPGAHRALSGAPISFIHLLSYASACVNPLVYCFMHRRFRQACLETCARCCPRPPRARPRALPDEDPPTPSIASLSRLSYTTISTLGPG
Method: (§1) Table printed on a drawing sheet, Fig. 4
Head of the field: IC50 (nM)
(§2) Footnotes: Significant improvement / Significant drawback
First copying reader's note: Light grey shading of a cell marks a significant improvement and dark grey shading a significant drawback; logD was measured at pH 7.4.
Where the first naming reader finds the target: patent_title: MINIGASTRIN DERIVATES, IN […] FOR USE IN CCK2 RECEPTOR POSITIVE TUMOUR DIAGNOSIS AND/OR TREATMENT

[3] = system: CCK-2 receptor positive tumours; settings: in vivo; cited from earlier work
[4] = Fig. 4
Method: as §1, §2
First reader's note: Light grey shading of a cell marks a significant improvement and dark grey shading a significant drawback; logD was measured at pH 7.4.

Row | Compound | Plasma half live [4] | also measured
1 | CCCC[C@H](NC(=O)[C@H](Cc1c[nH]c2ccccc12)NC(=O)Cn1cc([C@H](Cc2ccc(O)cc2)NC(=O)[C@H](C)NC(=O)[C@@H](CCC(=O)O)NC(=O)CN2CCN(CC(=O)O)CCN(CC(=O)O)CCN(CC(=O)O)CC2)nn1)C(=O)N[C@@H](CC(=O)O)C(=O)N[C@@H](Cc1ccccc1)C(N)=O [DOTA[Nle15, Tyr^12-(Tz)-Gly^13]-MG11, DOTA[Nle15, Tyr12-ψ[Tz]-Gly13]-MG11] ({DOTA}-[dE]A[X2]W[Nle]DF-NH2) | – | peptides remaining stable in plasma [1]: more than 60%
2 | CCCC[C@H](NC(=O)[C@H](Cc1c[nH]c2ccccc12)NC(=O)CNC(=O)[C@H](Cc1ccc(O)cc1)NC(=O)[C@H](C)NC(=O)[C@@H](CCC(=O)O)NC(=O)CN1CCN(CC(=O)O)CCN(CC(=O)O)CCN(CC(=O)O)CC1)C(=O)N[C@@H](CC(=O)O)C(=O)N[C@@H](Cc1ccccc1)C(N)=O [DOTA[Nle15]-MG11, DOTA-DGlu-Ala-Tyr-Gly-Trp-Nle-Asp-Phe-NH2] ({DOTA}-[dE]AYGW[Nle]DF-NH2) | – | IC50 [2]: 16.1 nM
3 | DOTA-DGlu-DGlu-DGlu-DGlu-DGlu-DGlu-Ala-Tyr-Gly-Trp-Nle-Asp-Phe-NH2 [PP-F11N] | – | tumour-kidney-ratio [3]: excellent
4 | CCCC[C@H](NC(=O)[C@H](Cc1c[nH]c2ccccc12)NC(=O)CNC(=O)[C@H](Cc1ccc(O)cc1)n1cc([C@H](C)NC(=O)[C@@H](CCC(=O)O)NC(=O)CN2CCN(CC(=O)O)CCN(CC(=O)O)CCN(CC(=O)O)CC2)nn1)C(=O)N[C@@H](CC(=O)O)C(=O)N[C@@H](Cc1ccccc1)C(N)=O [DOTA[Nle15, Ala11-(Tz)-Tyr12]-MG11] ({DOTA}-[dE][X4]GW[Nle]DF-NH2) | 16.7 h | –
5 | CCCC[C@H](NC(=O)[C@H](Cc1c[nH]c2ccccc12)n1cc(CNC(=O)[C@H](Cc2ccc(O)cc2)NC(=O)[C@H](C)NC(=O)[C@@H](CCC(=O)O)NC(=O)CN2CCN(CC(=O)O)CCN(CC(=O)O)CCN(CC(=O)O)CC2)nn1)C(=O)N[C@@H](CC(=O)O)C(=O)N[C@@H](Cc1ccccc1)C(N)=O [DOTA[Nle15, Gly13-(Tz)-Trp14]-MG11] ({DOTA}-[dE]AY[X3][Nle]DF-NH2) | 4.3 h | –
6 | CCCC[C@@H](C(=O)N[C@@H](CC(=O)O)C(=O)N[C@@H](Cc1ccccc1)C(N)=O)n1cc([C@H](Cc2c[nH]c3ccccc23)NC(=O)CNC(=O)[C@H](Cc2ccc(O)cc2)NC(=O)[C@H](C)NC(=O)[C@@H](CCC(=O)O)NC(=O)CN2CCN(CC(=O)O)CCN(CC(=O)O)CCN(CC(=O)O)CC2)nn1 [DOTA[Nle15, Trp14-(Tz)-Nle15]-MG11] ({DOTA}-[dE]AYG[X1]DF-NH2) | >24 h | –

From patent publication US20210361735A1, “MINIGASTRIN DERIVATES, IN PARTICULAR FOR USE IN CCK2 RECEPTOR POSITIVE TUMOUR DIAGNOSIS AND/OR TREATMENT” (PAUL SCHERRER INSTITUT, priority 2017, published 2021)
